Reference: US7605272B2, “IGF-1R inhibitor” (Kyowa Hakko Kirin Co., Ltd., priority 2005, dated 2009)
Counter-ions that a name gives are not always drawn. Like-named read-outs stand apart in the source and are kept apart here.

Key:
NCI-H929 = assay: Cytostatic activity on human multiple myeloma cell line NCI-H929 (WST-1); format: cell-based; conditions: for inhibition at 10 µM / inhibition at 1 µM: Homo sapiens, NCI-H929, 72 h; for inhibition at 10 µM: 10 μmol/L, read-out: cytostatic rate (%) H929 (10 μmol/L); for inhibition at 1 µM: read-out: cytostatic rate (%) H929 (1 μmol/L)
Method in brief: (§1)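 Cytostatic rate is 100 minus % growth relative to DMSO-only wells (100%) and blank wells (0%), read by WST-1 absorbance at 450/690 nm after 2 h. Compound at 1 or 10 μmol/L final was applied for 72 h at 37 °C to cells seeded 24 h earlier.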

KMS-11 = assay: Cytostatic activity on human multiple myeloma cell line KMS-11 (WST-1); format: cell-based; conditions: for inhibition at 10 µM / inhibition at 1 µM: Homo sapiens, KMS-11, 72 h; for inhibition at 10 µM: 10 μmol/L, read-out: cytostatic rate (%) KMS-11 (10 μmol/L); for inhibition at 1 µM: read-out: cytostatic rate (%) KMS-11 (1 μmol/L)
Method in brief: as §1

IGF-1R = biological target: T1, IGF-1R (Homo sapiens, UniProt P08069); assay: IGF-1R inhibitory activity (kinase reaction, time-resolved fluoroimmunoassay); format: biochemical; conditions: test compound 10 μmol/L
T1 construct: purchased Upstate Co. 14-465
T1 sequence (P08069 959-1367 limits assumed): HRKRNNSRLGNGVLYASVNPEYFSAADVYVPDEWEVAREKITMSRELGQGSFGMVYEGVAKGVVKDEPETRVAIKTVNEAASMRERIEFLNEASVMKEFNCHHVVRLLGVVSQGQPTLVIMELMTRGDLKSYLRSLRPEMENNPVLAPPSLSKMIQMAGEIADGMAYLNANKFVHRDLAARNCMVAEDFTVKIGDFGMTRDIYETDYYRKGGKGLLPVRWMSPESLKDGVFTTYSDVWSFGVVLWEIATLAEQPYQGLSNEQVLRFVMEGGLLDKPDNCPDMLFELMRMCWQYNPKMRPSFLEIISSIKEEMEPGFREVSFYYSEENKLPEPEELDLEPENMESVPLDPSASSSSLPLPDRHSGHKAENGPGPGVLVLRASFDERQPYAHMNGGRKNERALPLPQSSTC
Method in brief: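 Compounds were tested at a single 10 μmol/L concentration. Each was incubated with recombinant IGF-1R (200 μg/L), 10 mmol/L ATP, MgCl2/MnCl2 and Na3VO4 (pH 7.5) on immobilized poly(Glu-Tyr) peptide for 30 min at 24° C. Eu-anti-phosphotyrosine time-resolved fluorescence (340/615 nm) gave relative activity against no-compound and no-enzyme wells, reported as % inhibition.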

[1] = NCI-H929 cells, test compound 1 μmol/L, WST-1
[2] = KMS-11 cells, test compound 1 μmol/L, WST-1
[3] = IGF-1R active recombinant enzyme

Structure (SMILES)	inhibition at 10 µM (NCI-H929; 72 hours) [%]	inhibition at 10 µM (KMS-11; 72 hours) [%]	inhibition at 10 µM (IGF-1R; [3]) [%]	further results
COc1c(OCCCN2CCOCC2)ccc(/C=C/c2n[nH]c3ccccc23)c1NC(=O)c1sccc1C [Compound 342, (E)-N-{6-[2-(1H-indazol-3-yl)vinyl]-2-methoxy-3-(3-morpholin-4-yl)propoxyphenyl}-3-methylthiophene-2-carboxamide]				cytostatic rate (%) H929 (1 μmol/L) (NCI-H929; [1]): 118.7%; cytostatic rate (%) KMS-11 (1 μmol/L) (KMS-11; [2]): 122.6%; inhibitory activity (%) at 10 μmol/L (IGF-1R; [3]): 101.6%
O=C(Cc1ccccc1)Nc1ccccc1/C=C/c1n[nH]c2ccccc12 [Compound 15, (E)-N-{2-[2-(1H-indazol-3-yl)vinyl]phenyl}-2-phenylacetamide]	93.6	95.1	55.4	
CCNC(=O)Nc1ccccc1/C=C/c1n[nH]c2ccccc12 [Compound 21, (E)-1-ethyl-3-{2-[2-(1H-indazol-3-yl)vinyl]phenyl}urea]	114	94	88.2	
CN(C)c1ccc(C(=O)Nc2ccccc2/C=C/c2n[nH]c3ccccc23)cc1 [Compound 17, (E)-4-dimethylamino-N-{2-[2-(1H-indazol-3-yl)vinyl]phenyl}benzamide]	115	127	98.3	
Cc1ccsc1C(=O)Nc1cc(CN2CCC(S(C)(=O)=O)CC2)ccc1/C=C/c1n[nH]c2ccccc12 [Compound 235, (E)-N-{2-[2-(1H-indazol-3-yl)vinyl]-5-(4-methanesulfonylpiperidin-1-ylmethyl)phenyl}-3-methylthiophene-2-carboxamide]			98.3	inhibition at 1 µM (NCI-H929; 1 μmol/L, 72 hours): 115%; inhibition at 1 µM (KMS-11; 1 μmol/L, 72 hours): 109%
O=C1c2ccccc2C(=O)N1c1ccccc1/C=C/c1n[nH]c2ccccc12 [Compound 159, (E)-2-{2-[2-(1H-indazol-3-yl)vinyl]phenyl}isoindole-1,3-dione]	104	75.5	99.9	
Cc1ccsc1C(=O)Nc1cc(C(=O)N(C)C)ccc1/C=C/c1n[nH]c2ccccc12 [Compound 117, (E)-N-{5-(N,N-dimethylcarbamoyl)-2-[2-(1H-indazol-3-yl)vinyl]phenyl}-3-methylthiophene-2-carboxamide]	119	115		inhibition at 10 µM (IGF-1R): 101%
Nc1cccc2c1C(=O)N(c1cc(C(=O)N3CCC(N4CCOCC4)CC3)ccc1/C=C/c1n[nH]c3ccccc13)C2=O [Compound 317, (E)-4-amino-2-{2-[2-(1H-indazol-3-yl)vinyl]-5-[4-(morpholin-4-yl)piperidin-1-ylcarbonyl]phenyl}isoindole-1,3-dione]			103	inhibition at 1 µM (NCI-H929; [1]): 114%; inhibition at 1 µM (KMS-11; [2]): 105%
Cc1ccsc1C(=O)Nc1cc(CN2CCN(C)C(=O)C2)ccc1/C=C/c1n[nH]c2ccccc12 [Compound 329, (E)-N-{2-[2-(1H-indazol-3-yl)vinyl]-5-(4-methyl-3-oxopiperazine-1-ylmethyl)phenyl}-3-methylthiophene-2-carboxamide]			105	inhibition at 1 µM (NCI-H929; [1]): 132%; inhibition at 1 µM (KMS-11; [2]): 116%
COc1cc(/C=C/c2n[nH]c3ccccc23)c(NC(=O)c2sccc2C)cc1OC [Compound 95, (E)-N-{2-[2-(1H-indazol-3-yl)vinyl]-4,5-dimethoxyphenyl}-3-methylthiophene-2-carboxamide]	121	138		inhibition at 10 µM (IGF-1R): 97.2%
Cc1ccsc1C(=O)Nc1cc(C(=O)N(C)CCO)ccc1/C=C/c1n[nH]c2ccccc12 [Compound 327, (E)-N-{5-[N-(2-hydroxyethyl)-N-methylcarbamoyl]-2-[2-(1H-indazol-3-yl)vinyl]phenyl}-3-methylthiophene-2-carboxamide]			101	inhibition at 1 µM (NCI-H929; [1]): 116%; inhibition at 1 µM (KMS-11; [2]): 98%
O=C(Nc1ccccc1/C=C/c1n[nH]c2ccccc12)c1cnccn1 [Compound 28, (E)-N-{2-[2-(1H-indazol-3-yl)vinyl]phenyl}pyrazine-2-carboxamide]	116	109	95.2	
CCN(CC)CCNCc1ccc(/C=C/c2n[nH]c3ccccc23)c(NC(=O)c2sccc2C)c1 [Compound 236, (E)-N-{5-[(2-diethylaminoethylamino)methyl]-2-[2-(1H-indazol-3-yl)vinyl]phenyl}-3-methylthiophene-2-carboxamide]			99.5	inhibition at 1 µM (NCI-H929; 1 μmol/L, 72 hours): 123%; inhibition at 1 µM (KMS-11; 1 μmol/L, 72 hours): 139%
Cc1cc(C(=O)Nc2ccccc2/C=C/c2n[nH]c3ccccc23)c(C(F)(F)F)o1 [Compound 59, (E)-N-{2-[2-(1H-indazol-3-yl)vinyl]phenyl}-5-methyl-2-trifluoromethylfuran-3-carboxamide]	110	106	86.3	
N#Cc1ccc(C(=O)Nc2ccccc2/C=C/c2n[nH]c3ccccc23)cc1 [Compound 83, (E)-4-cyano-N-{2-[2-(1H-indazol-3-yl)vinyl]phenyl}benzamide]	114	107		inhibition at 10 µM (IGF-1R): 96.3%
Cc1ccsc1C(=O)Nc1cc(CN2CCN(C)CC2)ccc1/C=C/c1n[nH]c2ccccc12 [Compound 234, (E)-N-{2-[2-(1H-indazol-3-yl)vinyl]-5-(4-methylpiperazin-1-ylmethyl)phenyl}-3-methylthiophene-2-carboxamide]			102	inhibition at 1 µM (NCI-H929; 1 μmol/L, 72 hours): 118%; inhibition at 1 µM (KMS-11; 1 μmol/L, 72 hours): 111%
COc1cccc(C(=O)Nc2ccccc2/C=C/c2n[nH]c3ccccc23)c1 [Compound 19, (E)-N-{2-[2-(1H-indazol-3-yl)vinyl]phenyl}-3-methoxybenzamide]	132	110	95.3	
O=[N+]([O-])c1ccccc1/C=C/c1n[nH]c2ccccc12 [Compound 1, (E)-3-[2-(2-nitrophenyl)vinyl]-1H-indazole]	105	80.2	71.2	
CC(=O)N1CCN(Cc2ccc(/C=C/c3n[nH]c4ccccc34)c(NC(=O)c3sccc3C)c2)CC1 [Compound 269, (E)-N-{5-(4-acetylpiperazin-1-ylmethyl)-2-[2-(1H-indazol-3-yl)vinyl]phenyl}-3-methylthiophene-2-carboxamide]			101	inhibition at 1 µM (NCI-H929; 1 μmol/L, 72 hours): 119%; inhibition at 1 µM (KMS-11; 1 μmol/L, 72 hours): 132%
Cc1ccsc1C(=O)Nc1cc(N2CCN(S(C)(=O)=O)CC2)ccc1/C=C/c1n[nH]c2ccccc12 [Compound 272, (E)-N-{2-[2-(1H-indazol-3-yl)vinyl]-5-(4-methanesulfonylpiperazin-1-yl)phenyl}-3-methylthiophene-2-carboxamide]			101	inhibition at 1 µM (NCI-H929; 1 μmol/L, 72 hours): 120%; inhibition at 1 µM (KMS-11; 1 μmol/L, 72 hours): 135%
Nc1ccc(C(=O)Nc2ccccc2/C=C/c2n[nH]c3ccccc23)s1 [Compound 56, (E)-5-amino-N-{2-[2-(1H-indazol-3-yl)vinyl]phenyl}thiophene-2-carboxamide]	116	134	99.3	
COC1CCN(C(=O)c2ccc(/C=C/c3n[nH]c4ccccc34)c(NC(=O)c3sccc3C)c2)CC1 [Compound 120, (E)-N-{2-[2-(1H-indazol-3-yl)vinyl]-5-(4-methoxypiperidin-1-ylcarbonyl)phenyl}-3-methylthiophene-2-carboxamide]	116	114		inhibition at 10 µM (IGF-1R): 97.5%
Cc1ccsc1C(=O)Nc1cc(CN2CCN(CCN3CCOCC3)CC2)ccc1/C=C/c1n[nH]c2ccccc12 [Compound 319]				cytostatic rate (%) H929 (1 μmol/L) (NCI-H929; [1]): 122.4%; cytostatic rate (%) KMS-11 (1 μmol/L) (KMS-11; [2]): 102.6%; inhibitory activity (%) at 10 μmol/L (IGF-1R; [3]): 100.4%
Cc1ccsc1C(=O)Nc1cc(CN2CCNC[C@H]2C)ccc1/C=C/c1n[nH]c2ccccc12 [Compound 331, (R)-(E)-N-{2-[2-(1H-indazol-3-yl)vinyl]-5-(2-methylpiperazin-1-ylmethyl)phenyl}-3-methylthiophene-2-carboxamide]			103	inhibition at 1 µM (NCI-H929; [1]): 116%; inhibition at 1 µM (KMS-11; [2]): 102%
Cc1ccsc1C(=O)Nc1cc(C(=O)N2CCC(O)CC2)ccc1/C=C/c1n[nH]c2ccccc12 [Compound 219, (E)-N-{2-[2-(1H-indazol-3-yl)vinyl]-5-(4-hydroxypiperidin-1-ylcarbonyl)phenyl}-3-methylthiophene-2-carboxamide hydrochloride]			99.4	inhibition at 1 µM (NCI-H929; 1 μmol/L, 72 hours): 111%; inhibition at 1 µM (KMS-11; 1 μmol/L, 72 hours): 108%
Cc1ccsc1C(=O)Nc1cc(C(=O)N(CCO)CCN2CCOCC2)ccc1/C=C/c1n[nH]c2ccccc12 [Compound 259, (E)-N-{5-[N-(2-hydroxyethyl)-N-(2-morpholinoethyl)carbamoyl]-2-[2-(1H-indazol-3-yl)vinyl]phenyl}-3-methylthiophene-2-carboxamide]			102	inhibition at 1 µM (NCI-H929; 1 μmol/L, 72 hours): 118%; inhibition at 1 µM (KMS-11; 1 μmol/L, 72 hours): 104%
